Measured values from the supplement of paper PMC6045584.
± gives the standard deviation of the averaged measurements.

Legend:
[1] = compound: CNCc1ccc(-c2[nH]c3cc(F)cc4c3c2CCNC4=O)cc1; test: surviving fraction relative to DMSO-only wells; higher = less growth inhibition; details: exposure time: 5 days
Method in brief: (§1)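 Surviving fraction was calculated by normalising CellTiter-Glo luminescence to the median of DMSO-only wells. Tumour cell lines in log phase were seeded in 384-well plates at 250–500 cells per well, and 24 hours later were exposed continuously for five days to inhibitors at 0.5, 1, 5, 10, 50, 100, 500 and 1000 nM.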

DASATINIB = compound: Cc1nc(Nc2ncc(C(=O)Nc3c(C)cccc3Cl)s2)cc(N2CCN(CCO)CC2)n1 [DASATINIB]; test: as above; details: exposure time: 5 days
Method in brief: as §1

Test System | surviving fraction ([1]; 0.5 nM) | surviving fraction ([1]; 1 nM) | surviving fraction ([1]; 5 nM) | surviving fraction ([1]; 10 nM) | surviving fraction ([1]; 50 nM) | surviving fraction ([1]; 100 nM) | surviving fraction ([1]; 500 nM) | surviving fraction ([1]; 1000 nM) | surviving fraction (DASATINIB; 0.5 nM) | surviving fraction (DASATINIB; 1 nM) | surviving fraction (DASATINIB; 5 nM) | surviving fraction (DASATINIB; 10 nM) | surviving fraction (DASATINIB; 50 nM) | surviving fraction (DASATINIB; 100 nM) | surviving fraction (DASATINIB; 500 nM) | surviving fraction (DASATINIB; 1000 nM)
CHLA90 AUTONOMIC GANGLIA | 0.97 ± 0.049 | 1.01 ± 0.068 | 0.961 ± 0.039 | 0.987 ± 0.043 | 0.993 ± 0.095 | 1.03 ± 0.023 | 1.01 ± 0.038 | 1.03 ± 0.033 | 0.801 ± 0.031 | 0.804 ± 0.059 | 0.737 ± 0.054 | 0.712 ± 0.025 | 0.735 ± 0.11 | 0.656 ± 0.091 | 0.711 ± 0.044 | 0.728 ± 0.026
143B BONE | 1.02 ± 0.037 | 1.04 ± 0.011 | 1.07 ± 0.037 | 1.1 ± 0.073 | 1.11 ± 0.14 | 1.04 ± 0.046 | 1.07 ± 0.15 | 1.04 ± 0.067 | 1.04 ± 0.058 | 1.03 ± 0.025 | 1.01 ± 0.046 | 0.9835 ± 0.00071 | 0.8695 ± 0.005 | 0.806 ± 0.019 | 0.7575 ± 0.0035 | 0.75 ± 0.042
T47D BREAST | 0.999 ± 0.015 | 1.04 ± 0.019 | 1.04 ± 0.021 | 0.999 ± 0.019 | 0.969 ± 0.033 | 0.954 ± 0.046 | 0.911 ± 0.0085 | 0.943 ± 0.023 | 0.937 ± 0.032 | 0.903 ± 0.043 | 0.903 ± 0.057 | 0.937 ± 0.042 | 1 ± 0.035 | 0.975 ± 0.042 | 0.964 ± 0.048 | 0.982 ± 0.061
SG28 HEADNECK | 1.09 ± 0.1 | 0.995 ± 0.011 | 0.953 ± 0.012 | 1 ± 0.073 | 0.763 ± 0.056 | 0.723 ± 0.046 | 0.798 ± 0.086 | 0.76 ± 0.12 | 0.749 ± 0.055 | 0.772 ± 0.04 | 0.687 ± 0.028 | 0.534 ± 0.087 | 0.439 ± 0.033 | 0.329 ± 0.018 | 0.213 ± 0.016 | 0.204 ± 0.032
SUM159 BREAST | 1.09 ± 0.024 | 1.1 ± 0.027 | 1.09 ± 0.035 | 1.07 ± 0.02 | 1.06 ± 0.044 | 1.04 ± 0.0053 | 1.06 ± 0.019 | 1.05 ± 0.018 | 0.948 ± 0.026 | 0.981 ± 0.011 | 0.955 ± 0.015 | 0.921 ± 0.022 | 0.907 ± 0.011 | 0.778 ± 0.048 | 0.59 ± 0.035 | 0.606 ± 0.055
MDAMB134 BREAST | 0.811 ± 0.061 | 0.818 ± 0.12 | 0.814 ± 0.051 | 0.8795 ± 0.0078 | 0.703 ± 0.19 | 0.764 ± 0.13 | 0.824 ± 0.21 | 0.986 ± 0.4 | 0.71 ± 0.023 | 0.687 ± 0.0057 | 0.531 ± 0.013 | 0.534 ± 0.096 | 0.704 ± 0.018 | 0.6445 ± 0.0035 | 0.635 ± 0.019 | 0.606 ± 0.0064
SG27 HEADNECK | 1.15 ± 0.14 | 1.18 ± 0.21 | 0.878 ± 0.14 | 1.14 ± 0.11 | 0.968 ± 0.093 | 0.923 ± 0.03 | 1.05 ± 0.062 | 0.989 ± 0.063 | 0.939 ± 0.12 | 1.01 ± 0.035 | 0.889 ± 0.15 | 0.736 ± 0.013 | 0.531 ± 0.0053 | 0.42 ± 0.038 | 0.35 ± 0.059 | 0.369 ± 0.064
93VU HEADNECK | 0.958 ± 0.074 | 0.994 ± 0.09 | 1.08 ± 0.081 | 1.01 ± 0.028 | 0.892 ± 0.07 | 0.859 ± 0.063 | 0.927 ± 0.04 | 0.894 ± 0.036 | 0.779 ± 0.041 | 0.788 ± 0.054 | 0.829 ± 0.036 | 0.752 ± 0.053 | 0.276 ± 0.02 | 0.132 ± 0.016 | 0.0923 ± 0.0015 | 0.0923 ± 0.013
HCC202 BREAST | 0.936 ± 0.073 | 1.2 ± 0.39 | 1.21 ± 0.31 | 1.08 ± 0.087 | 1.14 ± 0.21 | 0.78 ± 0.12 | 0.844 ± 0.033 | 0.867 ± 0.13 | 0.999 ± 0.37 | 1.23 ± 0.21 | 0.816 ± 0.2 | 0.907 ± 0.31 | 0.697 ± 0.21 | 0.722 ± 0.042 | 0.509 ± 0.019 | 0.505 ± 0.21
S68 BREAST | 1.19 ± 0.22 | 0.82 ± 0.23 | 0.959 ± 0.1 | 0.996 ± 0.26 | 0.676 ± 0.18 | 0.696 ± 0.17 | 0.691 ± 0.15 | 0.425 ± 0.11 | 0.625 ± 0.11 | 0.51 ± 0.096 | 0.561 ± 0.11 | 0.419 ± 0.12 | 0.409 ± 0.029 | 0.418 ± 0.041 | 0.277 ± 0.053 | 0.298 ± 0.079
PCI30 HEADNECK | 0.981 ± 0.059 | 1.04 ± 0.059 | 0.912 ± 0.019 | 0.937 ± 0.037 | 0.916 ± 0.056 | 0.944 ± 0.062 | 0.964 ± 0.044 | 0.956 ± 0.038 | 0.916 ± 0.015 | 0.888 ± 0.076 | 0.966 ± 0.05 | 0.98 ± 0.028 | 0.747 ± 0.017 | 0.665 ± 0.036 | 0.528 ± 0.019 | 0.421 ± 0.05
MCF7 BREAST | 0.923 ± 0.057 | 0.927 ± 0.072 | 0.921 ± 0.086 | 0.918 ± 0.084 | 0.951 ± 0.058 | 0.93 ± 0.081 | 0.865 ± 0.0098 | 0.924 ± 0.043 | 0.803 ± 0.048 | 0.798 ± 0.043 | 0.816 ± 0.035 | 0.795 ± 0.019 | 0.787 ± 0.051 | 0.741 ± 0.048 | 0.741 ± 0.028 | 0.739 ± 0.037
HOSMNG BONE | 0.936 ± 0.055 | 0.988 ± 0.083 | 0.94 ± 0.14 | 0.857 ± 0.03 | 0.838 ± 0.032 | 0.885 ± 0.089 | 0.929 ± 0.11 | 0.954 ± 0.045 | 0.979 ± 0.032 | 0.971 ± 0.05 | 0.868 ± 0.021 | 0.741 ± 0.027 | 0.603 ± 0.021 | 0.457 ± 0.016 | 0.36 ± 0.019 | 0.372 ± 0.0076
U2OS BONE | 1 ± 0.016 | 1.01 ± 0.051 | 1.03 ± 0.036 | 1.06 ± 0.031 | 0.961 ± 0.011 | 0.926 ± 0.037 | 0.883 ± 0.013 | 0.774 ± 0.052 | 0.951 ± 0.031 | 0.953 ± 0.022 | 0.957 ± 0.059 | 0.865 ± 0.051 | 0.8 ± 0.035 | 0.692 ± 0.021 | 0.514 ± 0.024 | 0.503 ± 0.006
CADOES1 SOFT TISSUE | 1 ± 0.21 | 0.975 ± 0.19 | 0.903 ± 0.081 | 0.838 ± 0.045 | 1.02 ± 0.068 | 0.856 ± 0.12 | 0.799 ± 0.14 | 0.715 ± 0.22 | 1.04 ± 0.07 | 1.01 ± 0.034 | 0.91 ± 0.042 | 0.939 ± 0.11 | 1.01 ± 0.079 | 0.973 ± 0.081 | 1.05 ± 0.099 | 1.14 ± 0.1
SG32 HEADNECK | 0.993 ± 0.27 | 1.01 ± 0.2 | 0.984 ± 0.17 | 1.02 ± 0.035 | 0.704 ± 0.061 | 0.716 ± 0.14 | 0.682 ± 0.075 | 0.566 ± 0.17 | 0.606 ± 0.048 | 0.653 ± 0.14 | 0.564 ± 0.11 | 0.438 ± 0.06 | 0.395 ± 0.09 | 0.171 ± 0.037 | 0.155 ± 0.015 | 0.147 ± 0.022
HT1080 SOFT TISSUE | 1.04 ± 0.019 | 1.01 ± 0.014 | 0.983 ± 0.04 | 0.968 ± 0.018 | 0.899 ± 0.018 | 0.869 ± 0.037 | 0.818 ± 0.047 | 0.671 ± 0.068 | 0.975 ± 0.032 | 0.947 ± 0.043 | 0.918 ± 0.02 | 0.841 ± 0.046 | 0.61 ± 0.017 | 0.541 ± 0.017 | 0.428 ± 0.023 | 0.427 ± 0.01
CME SYNOVIAL | 1.16 ± 0.072 | 1.25 ± 0.097 | 1.11 ± 0.18 | 1.11 ± 0.18 | 0.693 ± 0.18 | 0.556 ± 0.094 | 0.373 ± 0.08 | 0.301 ± 0.015 | 0.831 ± 0.15 | 0.827 ± 0.1 | 0.752 ± 0.088 | 0.713 ± 0.1 | 0.598 ± 0.028 | 0.464 ± 0.042 | 0.411 ± 0.075 | 0.383 ± 0.036
HCC1954 BREAST | 0.795 ± 0.12 | 0.797 ± 0.11 | 0.947 ± 0.039 | 1.04 ± 0.17 | 0.61 ± 0.082 | 0.549 ± 0.019 | 0.557 ± 0.0088 | 0.464 ± 0.012 | 0.362 ± 0.011 | 0.325 ± 0.035 | 0.282 ± 0.0039 | 0.351 ± 0.006 | 0.309 ± 0.022 | 0.173 ± 0.021 | 0.148 ± 0.0028 | 0.104 ± 0.019
MDAMB361 BREAST | 0.709 ± 0.074 | 0.752 ± 0.04 | 0.672 ± 0.041 | 0.69 ± 0.0053 | 0.543 ± 0.065 | 0.615 ± 0.082 | 0.553 ± 0.09 | 0.589 ± 0.063 | 0.678 ± 0.12 | 0.733 ± 0.081 | 0.668 ± 0.087 | 0.711 ± 0.16 | 0.799 ± 0.058 | 0.781 ± 0.039 | 0.75 ± 0.077 | 0.821 ± 0.13
